Reference: patent US20020170080A1, “Alpha-tocopherol transfer protein knockout animals” (The Regents of the University of California, priority 2000, published 2002)

How the values were obtained:
Ttpa^−/− females = assay: Vitamin E supplementation of the diet and the fertility defect of Ttpa−/− female mice; format: in vivo, mouse; details: vitamin E supplementation 1000 IU/kg of diet, data not shown
Excerpt: Ttpa^−/− mice were generally healthy. Offspring from heterozygous intercrosses were born with the expected Mendelian distribution. Ttpa^−/− mice at 18 months of age had no obvious signs of neurological disease. In contrast, humans with α-TTP gene defects develop ataxia with vitamin E deficiency by the first decade of life (Sokol et al. (1988) J. Lab. Clin. Med. 111: 548-559; Ouahchi et al. (1995) Nat. Genet. 9: 141-145; Hentati et al. (1996) Ann. Neurol. 39: 295-300). […] Ttpa^−/− males had no obvious impairment in fertility.

apo E^−/− mice = details: apo E−/− mice fed a chow diet, vitamin E supplementation; cited from earlier work
femoral artery lesions = details: human clinical trial; cited from earlier work
[1] = tested on: abdominal aortas or iliac arteries; details: nonhuman primates; cited from earlier work

Molecule	effect on fertility defect (Ttpa^−/− females)	levels of atherosclerosis (apo E^−/− mice)	progression of femoral artery lesions (femoral artery lesions)	lesion development in abdominal aortas or iliac arteries [1]
vitamin E	completely reversed the fertility defect	decreased levels of atherosclerosis		
CC(C)(Sc1cc(C(C)(C)C)c(O)c(C(C)(C)C)c1)Sc1cc(C(C)(C)C)c(O)c(C(C)(C)C)c1 [probucol]			did not prevent progression of femoral artery lesions	did not prevent
